Assay results: the supplement of paper PMC10307832

Key:
Test in all cases: relative viability (nuclei count vs DMSO), 5 days (fraction); higher = more cells survive
[1] = compound: COc1cc2nc(N3CCCN(C)CC3)nc(NC3CCN(Cc4ccccc4)CC3)c2cc1OC + COc1cc2c(Oc3ccc(NC(=O)C4(C(=O)Nc5ccc(F)cc5)CC4)cc3F)ccnc2cc1OCCCN1CCOCC1 [Foretinib] (partner 0.25 µM)
How it was run: (§1)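 Relative viability is defined as nuclei in treated wells over nuclei in vehicle wells. Duplicate plates were run and medians reported. Lung cancer cell lines in 1536-well plates were dosed by pin tool one day after seeding, with one drug or with a fixed anchor-drug dose plus five library-drug doses (not always all listed) in √10 steps, and nuclei were counted after 5 days.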

[2] = compound: COc1cc2nc(N3CCCN(C)CC3)nc(NC3CCN(Cc4ccccc4)CC3)c2cc1OC + Nc1ncn([C@H]2C[C@H](O)[C@@H](CO)O2)c(=O)n1 [Decitabine] (partner 2 µM)
How it was run: as §1

[3] = compound: COc1cc2nc(N3CCCN(C)CC3)nc(NC3CCN(Cc4ccccc4)CC3)c2cc1OC + O=C(CCCCCCC(=O)Nc1ccccc1)NO [Vorinostat] (partner 1 µM)
How it was run: as §1

AZD6482 + Navitoclax = compound: Cc1cc([C@@H](C)Nc2ccccc2C(=O)O)c2nc(N3CCOCC3)cc(=O)n2c1 [AZD6482] + CC1(C)CCC(c2ccc(Cl)cc2)=C(CN2CCN(c3ccc(C(=O)NS(=O)(=O)c4ccc(N[C@H](CCN5CCOCC5)CSc5ccccc5)c(S(=O)(=O)C(F)(F)F)c4)cc3)CC2)C1 [Navitoclax] (partner 0.5 µM)
How it was run: as §1

Cell Line | relative viability ([1]; first compound 0.2 µM) | relative viability ([1]; first compound 0.6325 µM) | relative viability ([1]; first compound 2 µM) | relative viability ([1]; first compound 6.325 µM) | relative viability ([2]; first compound 0.2 µM) | relative viability ([2]; first compound 0.6325 µM) | relative viability ([2]; first compound 2 µM) | relative viability ([2]; first compound 6.325 µM) | relative viability ([3]; first compound 0.2 µM) | relative viability ([3]; first compound 0.6325 µM) | relative viability ([3]; first compound 2 µM) | relative viability ([3]; first compound 6.325 µM) | relative viability (AZD6482 + Navitoclax; first compound 0.08 µM) | relative viability (AZD6482 + Navitoclax; first compound 0.253 µM) | relative viability (AZD6482 + Navitoclax; first compound 0.8 µM) | relative viability (AZD6482 + Navitoclax; first compound 2.53 µM) | relative viability (AZD6482 + Navitoclax; first compound 8 µM)
HOP-62 | 1.06 | 1.09 | 1.1 | 1.15 | 0.214 | 0.201 | 0.198 | 0.216 | 0.658 | 0.366 | 0.638 | 0.435 | 1.19 | 1.17 | 1.28 | 0.791 | 1.12
IA-LM | 1.13 | 0.807 | 1.34 | 1.16 |  |  |  |  | 0.983 | 0.876 | 0.908 | 0.975 | 0.859 | 0.979 | 0.977 | 0.618 | 0.744
LC-2-ad | 0.813 | 0.938 | 0.956 | 0.974 | 0.764 | 0.741 | 0.734 | 0.856 | 0.679 | 0.716 | 0.763 | 0.693 | 0.407 | 0.312 | 0.394 | 0.234 | 0.259
LCLC-97TM1 | 0.951 | 0.994 | 0.913 | 0.844 | 0.244 | 0.202 | 0.225 | 0.27 | 0.801 | 0.649 | 1 | 0.69 | 0.59 | 0.257 | 0.38 | 0.211 | 0.211
LCLC-103H | 0.826 | 0.857 | 0.825 | 0.772 | 0.74 | 0.794 | 0.777 | 0.701 | 0.776 | 0.754 | 0.844 | 0.656 |  |  |  |  | 
LK-2 | 1.49 | 0.932 | 1.13 | 1.12 | 0.276 | 0.244 | 0.359 | 0.326 | 0.302 | 0.194 | 0.364 | 0.209 | 0.779 | 0.716 | 0.932 | 0.681 | 0.782
LOU-NH91 | 0.933 | 0.996 | 0.866 | 0.993 | 0.779 | 0.845 | 0.853 | 0.808 | 0.942 | 1.06 | 0.845 | 0.827 | 0.579 | 0.651 | 0.659 | 0.441 | 0.518
LU99A | 0.895 | 0.864 | 0.821 | 0.803 | 0.863 | 0.857 | 0.893 | 0.811 | 0.473 | 0.546 | 0.517 | 0.44 | 0.753 | 0.757 | 0.81 | 0.515 | 0.529
LXF-289 | 0.936 | 0.993 | 0.984 | 1 | 0.396 | 0.365 | 0.418 | 0.393 | 0.722 | 0.783 | 0.796 | 0.654 | 0.974 | 0.955 | 0.997 | 0.954 | 0.854
NCI-H23 | 0.914 | 1.06 | 1.12 | 0.918 | 0.307 | 0.334 | 0.316 | 0.322 | 0.571 | 0.597 | 0.576 | 0.471 | 0.828 | 0.696 | 0.785 | 0.578 | 0.568
NCI-H322M | 0.899 | 0.94 | 1.05 | 0.923 | 0.717 | 0.708 | 0.768 | 0.708 | 0.838 | 0.939 | 0.855 | 0.868 | 1.24 | 1 | 1.07 | 0.675 | 0.798
NCI-H358 | 0.701 | 0.824 | 0.81 | 0.566 | 0.203 | 0.2 | 0.2 | 0.158 | 0.746 | 0.663 | 0.754 | 0.462 |  |  |  |  | 
NCI-H441 | 0.957 | 0.954 | 0.928 | 1.02 | 0.239 | 0.225 | 0.3 | 0.206 | 0.77 | 0.647 | 0.927 | 0.862 | 0.752 | 0.59 | 0.563 | 0.702 | 0.632
NCI-H522 |  |  |  |  | 0.623 | 0.694 | 0.588 | 0.698 | 0.803 | 0.884 | 0.879 | 0.676 |  |  |  |  | 
NCI-H650 | 1.06 | 0.948 | 1.12 | 0.965 | 0.323 | 0.307 | 0.392 | 0.279 | 0.573 | 0.391 | 0.475 | 0.321 |  |  |  |  | 
NCI-H661 | 1.04 | 0.972 | 1.06 | 0.995 | 0.58 | 0.569 | 0.588 | 0.689 | 0.763 | 0.774 | 0.833 | 0.807 |  |  |  |  | 
NCI-H1299 | 1.07 | 1.07 | 1.13 | 1.06 |  |  |  |  |  |  |  |  | 0.982 | 1.04 | 1.1 | 0.917 | 1.04
NCI-H1563 | 1.03 | 0.944 | 0.973 | 0.824 |  |  |  |  |  |  |  |  |  |  |  |  | 
NCI-H1648 |  |  |  |  |  | 0.472 |  | 0.507 |  | 0.562 |  | 0.616 |  |  |  |  | 
NCI-H1703 | 0.313 | 0.317 | 0.412 | 0.448 |  |  |  |  |  |  |  |  | 0.902 | 0.865 | 0.822 | 0.338 | 0.422
NCI-H1792 |  |  |  |  | 0.625 | 0.553 | 0.481 | 0.496 |  |  |  |  | 0.508 | 0.511 | 0.566 | 0.341 | 0.463
NCI-H2228 | 1.02 | 0.711 | 0.729 | 0.499 |  |  |  |  | 0.37 | 0.662 | 0.54 | 0.25 | 0.738 | 0.963 | 0.803 | 0.634 | 0.616
NCI-H2342 | 1.1 | 1 | 1.17 | 1.1 | 0.791 | 0.785 | 0.716 | 0.662 | 0.638 | 0.729 | 0.792 | 0.757 |  |  |  |  | 
SW 900 | 0.679 | 1.15 | 0.779 | 0.857 | 0.448 | 0.501 | 0.412 | 0.373 | 0.365 | 0.713 | 0.565 | 0.375 |  |  |  |  | 
